US20090012152A1, “Use of Tetramic Acid Derivatives for Controlling Insects from the Genus of the Plane Lice (Sternorrhyncha)” (Bayer CropScience Aktiengesellschaft, priority 2005, published 2009)

Tests used:
Type in all cases: in vivo
[1] = system: Psylla piri; assay: Example 6: pear trees treated against Psylla piri; settings: larvae on shoots, % a.i.: amitraz 0.05, I-9, I-2, I-1 0.096; for Kill (%) 3 d: 3 d after last of two treatments; for Kill (%) 10 d: 10 d after last of two treatments; for Kill (%) 20 d: 20 d after last of two treatments
Description: In three replications, in each case 4 about 4-year-old pear trees of the cultivar “Williams Christ” are treated against Psylla piri. Two applications are carried out at an interval of 11 days using a motor-operated barrow-mounted sprayer. Here, the active compounds Example (I-9) (240 SC), Example (I-2) (240 SC) and Example (I-1) (240 SC) are tested against the commercial standard Amitraz (200 EC) at the stated amounts. The application rate is 2000 l of water/ha.
Evaluation is carried out 3, 10 and 20 days after the last treatment by rating the kill of the larvae in percent on the shoots.

[2] = system: Saissetia oleae; assay: Example 13: orange trees treated against Saissetia oleae; settings: nymphs on leaves, g a.i./ha/m crown height: buprofezin 500, I-4 72, I-8 30
Description: In three replications, in each case two about 8-year-old orange trees are treated against Saissetia oleae. Here, the active compounds Example (I-4) (240 SC) and Example (I-8) (250 SC) in a tank mix with 0.2% a.i. of rapeseed oil methyl ester (500 EW) at the stated application rate are tested against the commercial standard buprofezin in a tank mix with 0.4% a.i. of Oliocin (800 EW) at the stated application rate. The application is carried out using a motor-operated knapsack sprayer. The application rate is 3000 l of water/ha. Two treatments are carried out, at an interval of 29 days.
Evaluation is carried out 24 and 44 days after the last treatment by rating the kill of the nymphs on the leaves.

[3] = system: Bemisia argentifolii; assay: Example 36: aubergine plants (Ryoma) treated against Bemisia argentifolii; settings: nymphs on leaves, % a.i.: pymetrozine 0.0125, I-4 0.072, I-8 0.06; for Kill (%) 13 d: 13 d after treatment; for Kill (%) 20 d: 20 d after treatment; for Kill (%) 27 d: 27 d after treatment
Description: In three replications, in each case four aubergine plants of the cultivar “Ryoma” are treated against Bemisia argentifolii. The application is carried out using a motor-operated knapsack sprayer. Here, the active compounds Example (I-4) and Example (I-8), in a tank mix with 0.2% a.i. of rapeseed oil methyl ester (500 EW), and the commercial standard pymetrozine (25 WP) are tested at the stated application rates. The application rate is 3200 l of water/ha.
Evaluation is carried out 13, 20 and 27 days after the treatment by rating the kill of the nymphs on the leaves.

[4] = system: Nasonovia ribisnigri; assay: Example 42: head lettuce treated against Nasonovia ribisnigri; settings: on plants, g a.i./ha: Pirimor 150, I-4 48, I-8 42
Description: In four replications, plots of a size of 5 m^2 with head lettuce are, two weeks after transplantation, treated against Nasonovia ribisnigri. The application is carried out using a knapsack sprayer operated with pressurized air. Here, the active compounds Example (I-4) (240 SC) and Example (I-8) (240 SC) are, in a tank mix with 0.2% a.i. of rapeseed oil methyl ester (500 EW), tested against the commercial standard Pirimor, at the stated application rates. The application rate is 500 l of water/ha.
Evaluation is carried out 7, 14 and 26 days after the treatment by rating the kill of the animals on the plants.

[5] = system: Myzus persicae; assay: Example 50: tomatoes treated against Myzus persicae; settings: nymphs on leaves, g a.i./ha: acetamiprid 50, I-9 36, I-4 48
Description: In two replications, plots of a size of about 43 m^2 with tomatoes of the cultivar “Yaqui” are treated against Myzus persicae. The application is carried out using a motor-operated knapsack sprayer. Here, the active compounds Example (I-9) (240 SC) and Example (I-4) (240 SC), in a tank mix with 0.1% a.i. of rapeseed oil methyl ester (500 EW), and the standard acetamiprid (20 WP) are applied at the stated application rates. The application rate is 208 l of water/ha.
Evaluation is carried out 3 and 10 days after the treatment by rating the kill of the nymphs on the leaves.

[6] = system: Psylla piri; assay: Example 5: pear trees treated against Psylla piri; settings: nymphs on shoots, g a.i./ha/m crown height: amitraz 266, I-4 72
Description: In three replications, pear trees of the cultivar “Williams Christ” are treated against Psylla piri. Application is shortly before the eggs hatch. The application is carried out using a barrow-mounted sprayer operated with pressurized air. Here, the active compound Example (I-4) (240 SC) is tested in a tank mix with 0.1% a.i. rapeseed oil methyl ester (500 EW) at the stated amount against the standard amitraz (200 EC) at the stated amount. The application rate is 1000 l of water/ha.
Evaluation is carried out 7, 14 and 21 days after the treatment by rating the kill of the nymphs on the shoots.

[7] = system: Paratrioza cockerelli; assay: Example 7: bell peppers treated against Paratrioza cockerelli; settings: nymphs on leaves, g a.i./ha: imidacloprid 52.6, I-4 72, dimethoate 561
Description: In four replications, plots of a size of about 7 m^2 with bell peppers of the cultivar “Jupiter” are treated against Paratrioza cockerelli. The application is carried out with a knapsack sprayer operated with pressurized air. Here, the active compound Example (I-4) (240 SC) is applied in a tank mix with 0.2% a.i. of rapeseed oil methyl ester (500 EW) and the commercial standards imidacloprid 192 SC and dimethoate (480 EC) are applied in a tank mix with 0.125% Induce at the stated application rates. The application is carried out with an application rate of 467 l of water/ha.
Evaluation is carried out 7 and 15 days after the treatment by rating the kill of the animals (nymphs) on the leaves.

[8] = system: Aulacorthum solani; assay: Example 46: head lettuce treated against Aulacorthum solani; settings: nymphs on plants, g a.i./ha: endosulfan 1120, I-4 48
Description: (§1) In four replications, plots of a size of about 33 m^2 with head lettuce of the cultivar “PIC 714” are treated against Aulacorthum solani, Macrosiphum euphorbiae and Myzus persicae. The application is carried out using a tractor sprayer. Here, the active compound Example (I-4) (240 SC), in a tank mix with 0.2% a.i. of rapeseed oil methyl ester (500 EW), is tested against the commercial standard endosulfan (360 EC), at the stated application rates. The application rate is 187 l of water/ha. Two treatments are carried out, at an interval of 22 days.
(§2) Evaluation is carried out 8, 22, 30 and 40 days after the first treatment by rating the kill of the nymphs on the plants.

[9] = system: Bemisia argentifolii; assay: Example 37: cantaloupe melons treated against Bemisia argentifolii; settings: nymphs on leaves, g a.i./ha: endosulfan 1120, I-4 48
Description: In four replications, plots of a size of about 39 m^2 with cantaloupe melons of the cultivar “Western Shipper” are treated against Bemisia argentifolii. The application is carried out using a knapsack sprayer operated with pressurized air. Here, the active compound Example (I-4) (240 SC), in a tank mix with 0.2 a.i. of rapeseed oil methyl ester (500 EW), and the commercial standard endosulfan (360 EC) are tested at the stated application rates. Two applications are carried out at an interval of 16 days. The application rate is 187 l of water/ha.
Evaluation is carried out 5, 13, 21 and 29 days after the first treatment by rating the kill of the animals (nymphs) on the leaves.

[10] = system: Macrosiphum euphorbiae; assay: Example 46: head lettuce treated against Macrosiphum euphorbiae; settings: nymphs on plants, g a.i./ha: endosulfan 1120, I-4 48
Description: as §1, §2

[11] = system: Myzus persicae; assay: Example 46: head lettuce treated against Myzus persicae; settings: nymphs on plants, g a.i./ha: endosulfan 1120, I-4 48
Description: as §1, §2

[12] = system: Pemphigus bursarius; assay: Example 3: chrysanthemums, lettuce root aphid; settings: on roots, drip irrigation 0.1%
Description: In three replications, in each case 10 about 5-month-old chrysanthemums (Camilla) in 2 l-vessels are treated against the lettuce root aphid Pemphigus bursarius. Here, the active compound Example (I-4) (240 SC) is applied with a knapsack sprayer operated by pressurized air at the beginning of the infestation at the stated application rates to the above-ground parts of the plants. The soil is covered with a film. The application rate is 600 l of water/ha. 0.1% a.i. of rapeseed oil methyl ester (500 EW) is added to the spray liquor. Omethoate as drip irrigation in a concentration of 0.1% is used for comparison. The application is carried out two days later.
The kill in percent is determined on the roots. […]

[13] = system: Myzus persicae; assay: Example 48: aubergine plants treated against Myzus persicae; settings: on leaves, rate (g of a.i./ha): pymethrozine 0.0125, I-4 0.024
Description: In three replications, four aubergine plants (age about 7 months) of the cultivar “Hayabusa” are treated against Myzus persicae. The application is carried out using a motor-operated knapsack sprayer. Here, the active compound Example (I-4) (240 SC), in a tank mix with 0.1% a.i. of rapeseed oil methyl ester (500 EW), and the commercial standard pymethrozine (25 WP) are tested at the stated application rates. The application rate is 3000 l of water/ha.
Evaluation is carried out 7, 14, 21 and 29 days after the treatment by rating the kill of the animals on the leaves.

[14] = 8 d after first of two treatments
[15] = 22 d after first of two treatments
[16] = 30 d after first of two treatments
[17] = 40 d after first of two treatments

COC1CCC2(CC1)NC(=O)C(c1cc(C)ccc1Br)=C2OC(=O)C(C)C (stereo not drawn) [Example (I-1)]
Kill (%) 3 d [1]: 90.0% | Kill (%) 10 d [1]: 96.6% | Kill (%) 20 d [1]: 95.0%

CCOC(=O)OC1=C(c2cc(C)c(Cl)cc2C)C(=O)NC12CCC(OC)CC2 (stereo not drawn) [Example (I-8)]
Kill (%) 24 d ([2]; 24 d after last of two treatments): 66.5% | Kill (%) 44 d ([2]; 44 d after last of two treatments): 56.1% | Kill (%) 13 d [3]: 99.5% | Kill (%) 20 d [3]: 99.9% | Kill (%) 27 d [3]: 97% | Kill (%) 7 d ([4]; 7 d after treatment): 80.8% | Kill (%) 14 d ([4]; 14 d after treatment): 93.6% | Kill (%) 26 d ([4]; 26 d after treatment): 92.7%

C/C(=N\C#N)N(C)Cc1ccc(Cl)nc1 [acetamiprid, reference compound]
Kill (%) 3 d ([5]; 3 d after treatment): 78.7% | Kill (%) 10 d ([5]; 10 d after treatment): 73.5%

Cc1ccc(/N=C/N(C)/C=N/c2ccc(C)cc2C)c(C)c1 [amitraz, reference compound]
Kill (%) 7 d ([6]; 7 d after treatment): 100% | Kill (%) 14 d ([6]; 14 d after treatment): 95.2% | Kill (%) 21 d ([6]; 21 d after treatment): 75% | Kill (%) 3 d [1]: 54.3% | Kill (%) 10 d [1]: 56.7% | Kill (%) 20 d [1]: 21.4%

CNC(=O)CSP(=S)(OC)OC [dimethoate]
Kill (%) 7 d ([7]; 7 d after treatment): 63% | Kill (%) 15 d ([7]; 15 d after treatment): 0%

O=S1OCC2C(CO1)C1(Cl)C(Cl)=C(Cl)C2(Cl)C1(Cl)Cl (stereo not drawn) [endosulfan, reference compound]
Kill (%) 8 d [8, 14]: 96% | Kill (%) 22 d [8, 15]: 88% | Kill (%) 30 d [8, 16]: 98% | Kill (%) 40 d [8, 17]: 53% | Kill (%) 5 d ([9]; 5 d after first of two treatments): 0% | Kill (%) 13 d ([9]; 13 d after first of two treatments): 100% | Kill (%) 21 d ([9]; 21 d after first of two treatments): 80.8% | Kill (%) 29 d ([9]; 29 d after first of two treatments): 66.7% | Kill (%) 8 d [10, 14]: 100% | Kill (%) 22 d [10, 15]: 100% | Kill (%) 30 d [10, 16]: 99% | Kill (%) 40 d [10, 17]: 96% | Kill (%) 8 d [11, 14]: 95% | Kill (%) 22 d [11, 15]: 61% | Kill (%) 30 d [11, 16]: 100%

CNC(=O)CSP(=O)(OC)OC [omethoate, reference compound]
Kill (%) 7 d ([12]; 7 d): 20 (7 d) % | Kill (%) 15 d ([12]; 15 d): 70.6 (15 d) %

CC1=NNC(=O)N(/N=C/c2cccnc2)C1 [pymetrozine, reference compound]
Kill (%) 7 d ([13]; 7 d after treatment): 99.9% | Kill (%) 14 d ([13]; 14 d after treatment): 99% | Kill (%) 21 d ([13]; 21 d after treatment): 95% | Kill (%) 29 d ([13]; 29 d after treatment): 73% | Kill (%) 13 d [3]: 79% | Kill (%) 20 d [3]: 74% | Kill (%) 27 d [3]: 75%
